From paper PMC6941756 (Biochemistry, 2019)

Biological target: HIV-1 protease KY variant (Human immunodeficiency virus 1, UniProt P12497, L577V/L578M/Q495K, form not given)

For `CC(C)CN(C[C@@H](O)[C@H](Cc1ccccc1)NC(=O)O[C@H]1CO[C@H]2OCC[C@H]21)S(=O)(=O)c1ccc(N)cc1` [DRV, darunavir], which “times more tightly bound than expected under additivity of binding free energies” value (KY variant protease) is on record?
Its value is “about 3.5 times”.

And the “increase in Ki compared with the NL4–3 WT protease” value (all of the KY variants vs NL4–3 WT)?
The value was at least 500 fold.
